The source of these data is patent US6117866A, “Bicyclic fibrinogen antagonists” (SmithKline Beecham Corporation, priority 1996, dated 2000).

SMILES strings stand for the structures.

The subject of this test is human platelets. The test can be described thus: Inhibition of Platelet Aggregation (human platelets stimulated with ADP). Particulars: in vitro. Format: cell-based.
What is called IC50 is the concentration that inhibits the measured activity by half. Consider `CN(CCC1CCNCC1)C(=O)c1ccc2c(c1)CC(CCC(=O)O)C(=O)N(CCc1ccccc1)C2` (racemic) [Example 22, (R,S)-2,3,4,5-tetrahydro-3-oxo-2-(2-phenylethyl)-7-[[[2-(4-piperidinyl)ethyl]-methylamino]carbonyl]-1H-2-benzazepine-4-propionic acid], for which the concentration for half-maximal inhibition (IC50) lay in the range of 0.2 to 11 µM.
To `O=C(O)CC1Nc2ccc(C(=O)N3CCC(C4CCNCC4)CC3)cc2CN(CCc2ccccc2)C1=O` (single isomer, unassigned; (+)) [Example 23, (+)-7-[(4,4'-bipiperidin-1-yl)carbonyl]-2,3,4,5-tetrahydro-3-oxo-4-(phenylethyl)-1H-1,4-benzodiazepine-2-acetic acid] belongs 0.2 to 11 µM; to `O=C(O)CC1Nc2cc(C(=O)Nc3ccc4c(c3)CNCC4)ccc2CN(CCc2ccccc2)C1=O` (racemic) [Example 4, (R,S)-8-[[(1,2,3,4-tetrahydro-7-isoquinolinyl]amino]carbonyl]-2,3,4,5-tetrahydro-3-oxo-4-(2-phenylethyl)-1H-1,4-benzodiazepine-2-acetic acid], roughly 75 µM; to `O=C(O)CC1Nc2ccc(C(=O)Nc3ccc4c(c3)CNCC4)cc2CN(CCc2ccccc2)C1=O` (racemic) [Example 7, (R,S)-7-[[(1,2,3,4-tetrahydro-7-isoquinolinyl]amino]carbonyl]-2,3,4,5-tetrahydro-3-oxo-4-(2-phenylethyl)-1H-1,4-benzodiazepine-2-acetic acid], 0.2 to 11 µM.
On to `CN1Cc2cc(C(=O)N3CCC(C4CCNCC4)CC3)ccc2N[C@H](CC(=O)O)C1=O` [Example 26, (R)-7-[(4,4'-bipiperidin-1-yl)carbonyl]-2,3,4,5-tetrahydro-4-methyl-3-oxo-1H-1,4-benzodiazepine-2-acetic acid], for which the IC50 lay within 0.2 to 11 µM.
